Source: PMC12090182, “Repurposing of the RIPK1-Selective Benzo[1,4]oxazepin-4-one Scaffold for the Development of a Type III LIMK1/2 Inhibitor” (ACS Chemical Biology, 2025)

Experiments:
Test in all cases: scanMAX KINOMEscan (Eurofins)
Assay type in all cases: binding
[1] = biological target: ACVR2B (Homo sapiens, UniProt Q13705); details: 1000 nM, read-out: Percent Control
Text: (§1) Supplement cb5c00097_si_002.xlsx, sheet "Table S6 (Eurofins Selectivity)" | column: Percent Control

[2] = biological target: ADCK4 (Homo sapiens, UniProt Q96D53); details: 1000 nM, read-out: Percent Control
Text: as §1

[3] = biological target: ARK5 (Homo sapiens, UniProt O60285); details: read-out: Percent Control
Sequence of ARK5 (O60285 whole entry): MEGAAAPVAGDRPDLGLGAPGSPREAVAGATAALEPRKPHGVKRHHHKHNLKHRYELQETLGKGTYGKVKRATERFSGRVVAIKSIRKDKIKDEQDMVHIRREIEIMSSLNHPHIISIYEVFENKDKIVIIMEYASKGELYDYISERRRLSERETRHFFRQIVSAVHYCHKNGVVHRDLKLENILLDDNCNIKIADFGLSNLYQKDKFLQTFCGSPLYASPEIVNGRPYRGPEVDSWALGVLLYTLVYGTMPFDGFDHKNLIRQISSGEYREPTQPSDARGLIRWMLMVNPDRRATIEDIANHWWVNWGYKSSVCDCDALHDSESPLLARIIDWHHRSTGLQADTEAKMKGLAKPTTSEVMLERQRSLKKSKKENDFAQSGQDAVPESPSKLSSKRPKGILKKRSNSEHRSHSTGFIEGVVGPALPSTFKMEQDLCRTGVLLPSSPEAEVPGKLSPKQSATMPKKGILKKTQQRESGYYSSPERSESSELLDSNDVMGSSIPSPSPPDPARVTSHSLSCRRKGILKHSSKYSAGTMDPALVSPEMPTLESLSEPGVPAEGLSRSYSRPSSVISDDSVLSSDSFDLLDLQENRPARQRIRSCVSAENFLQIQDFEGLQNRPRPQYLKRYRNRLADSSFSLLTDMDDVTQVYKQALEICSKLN
Text: as §1

[4] = biological target: AURKB (Homo sapiens, UniProt Q96GD4); details: read-out: Percent Control
Sequence of AURKB (Q96GD4 whole entry): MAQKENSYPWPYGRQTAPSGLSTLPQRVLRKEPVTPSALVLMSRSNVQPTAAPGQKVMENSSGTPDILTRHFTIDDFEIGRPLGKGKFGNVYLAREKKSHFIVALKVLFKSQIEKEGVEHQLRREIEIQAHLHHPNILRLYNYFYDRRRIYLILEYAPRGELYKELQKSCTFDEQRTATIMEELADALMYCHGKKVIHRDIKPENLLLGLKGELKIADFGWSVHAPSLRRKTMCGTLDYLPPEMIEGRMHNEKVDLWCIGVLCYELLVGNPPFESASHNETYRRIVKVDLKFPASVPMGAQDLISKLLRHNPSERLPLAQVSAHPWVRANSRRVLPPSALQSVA
Text: as §1

[5] = biological target: AURKC (Homo sapiens, UniProt Q9UQB9); details: 1000 nM, read-out: Percent Control
Text: as §1

[6] = biological target: BUB1 (Homo sapiens, UniProt O43683); details: 1000 nM, read-out: Percent Control
Text: as §1

[7] = biological target: CDC2L5 (Homo sapiens, UniProt Q14004); details: read-out: Percent Control
Sequence of CDC2L5 (Q14004 whole entry): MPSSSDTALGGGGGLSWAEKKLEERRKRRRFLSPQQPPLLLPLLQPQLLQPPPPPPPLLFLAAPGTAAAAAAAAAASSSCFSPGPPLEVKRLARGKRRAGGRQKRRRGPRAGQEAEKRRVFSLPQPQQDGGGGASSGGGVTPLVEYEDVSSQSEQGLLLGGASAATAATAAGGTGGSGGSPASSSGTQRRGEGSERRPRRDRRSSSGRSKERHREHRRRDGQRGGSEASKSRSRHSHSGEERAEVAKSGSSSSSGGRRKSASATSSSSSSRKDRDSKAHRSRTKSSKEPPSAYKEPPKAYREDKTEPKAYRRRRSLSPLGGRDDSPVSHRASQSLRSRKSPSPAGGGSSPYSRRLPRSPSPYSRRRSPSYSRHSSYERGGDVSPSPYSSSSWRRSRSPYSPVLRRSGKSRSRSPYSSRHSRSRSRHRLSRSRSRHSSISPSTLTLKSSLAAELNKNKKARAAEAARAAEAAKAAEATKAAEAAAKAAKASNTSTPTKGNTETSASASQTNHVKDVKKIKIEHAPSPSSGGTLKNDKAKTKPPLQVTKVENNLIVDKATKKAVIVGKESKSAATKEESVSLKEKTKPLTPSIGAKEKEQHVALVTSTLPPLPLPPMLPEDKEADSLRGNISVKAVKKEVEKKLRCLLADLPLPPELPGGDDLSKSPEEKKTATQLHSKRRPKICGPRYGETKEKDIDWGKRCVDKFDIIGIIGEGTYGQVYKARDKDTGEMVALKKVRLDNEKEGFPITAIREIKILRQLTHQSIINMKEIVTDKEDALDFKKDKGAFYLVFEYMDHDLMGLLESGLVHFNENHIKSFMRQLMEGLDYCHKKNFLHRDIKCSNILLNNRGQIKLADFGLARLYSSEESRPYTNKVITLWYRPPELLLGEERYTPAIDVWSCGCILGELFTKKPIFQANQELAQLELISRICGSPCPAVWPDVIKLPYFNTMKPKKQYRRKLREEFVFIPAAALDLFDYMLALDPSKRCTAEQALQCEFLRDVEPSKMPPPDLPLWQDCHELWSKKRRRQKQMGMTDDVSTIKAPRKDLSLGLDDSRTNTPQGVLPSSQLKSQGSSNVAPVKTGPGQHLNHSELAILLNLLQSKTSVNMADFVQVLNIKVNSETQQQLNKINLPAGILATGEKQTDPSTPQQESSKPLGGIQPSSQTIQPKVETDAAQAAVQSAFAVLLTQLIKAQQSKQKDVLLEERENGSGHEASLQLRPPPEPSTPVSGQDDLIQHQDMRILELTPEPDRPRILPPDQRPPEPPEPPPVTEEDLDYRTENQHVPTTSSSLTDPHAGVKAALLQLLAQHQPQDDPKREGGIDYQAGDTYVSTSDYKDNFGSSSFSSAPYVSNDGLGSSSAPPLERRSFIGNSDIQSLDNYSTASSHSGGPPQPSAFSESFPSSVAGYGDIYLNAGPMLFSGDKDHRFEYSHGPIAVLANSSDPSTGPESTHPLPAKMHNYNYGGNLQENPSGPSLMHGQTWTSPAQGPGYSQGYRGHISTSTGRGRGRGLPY
Text: as §1

[8] = biological target: CHEK2 (Homo sapiens, UniProt O96017); details: read-out: Percent Control
Sequence of CHEK2 (O96017 whole entry): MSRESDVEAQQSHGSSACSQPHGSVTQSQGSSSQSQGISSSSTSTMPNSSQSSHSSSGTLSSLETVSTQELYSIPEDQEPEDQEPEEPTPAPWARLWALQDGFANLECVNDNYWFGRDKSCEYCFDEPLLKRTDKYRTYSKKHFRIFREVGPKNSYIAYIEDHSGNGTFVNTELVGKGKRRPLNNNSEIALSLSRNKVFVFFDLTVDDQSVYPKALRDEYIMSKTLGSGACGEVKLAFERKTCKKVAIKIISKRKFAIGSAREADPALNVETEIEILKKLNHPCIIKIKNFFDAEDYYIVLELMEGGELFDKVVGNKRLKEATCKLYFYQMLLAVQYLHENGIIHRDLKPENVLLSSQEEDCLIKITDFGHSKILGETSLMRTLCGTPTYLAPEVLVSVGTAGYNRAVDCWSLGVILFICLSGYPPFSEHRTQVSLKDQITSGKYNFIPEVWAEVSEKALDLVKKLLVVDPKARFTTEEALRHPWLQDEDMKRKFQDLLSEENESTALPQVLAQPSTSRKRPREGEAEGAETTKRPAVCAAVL
Text: as §1

[9] = biological target: CSNK1G2 (Homo sapiens, UniProt P78368); details: read-out: Percent Control
Sequence of CSNK1G2 (P78368 whole entry): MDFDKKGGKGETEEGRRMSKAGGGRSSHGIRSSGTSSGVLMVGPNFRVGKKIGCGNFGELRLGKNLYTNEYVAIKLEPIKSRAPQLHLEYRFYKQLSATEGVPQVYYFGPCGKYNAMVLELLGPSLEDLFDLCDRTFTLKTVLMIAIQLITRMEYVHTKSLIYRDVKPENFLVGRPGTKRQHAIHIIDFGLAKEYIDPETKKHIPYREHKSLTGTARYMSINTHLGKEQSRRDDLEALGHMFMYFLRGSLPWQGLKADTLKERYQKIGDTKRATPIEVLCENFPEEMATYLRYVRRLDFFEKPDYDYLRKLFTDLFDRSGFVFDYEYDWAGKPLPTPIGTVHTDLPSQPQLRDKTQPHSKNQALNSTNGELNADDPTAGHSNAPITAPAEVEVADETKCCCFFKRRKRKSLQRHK
Text: as §1

[10] = biological target: DDR2 (Homo sapiens, UniProt Q16832); details: 1000 nM, read-out: Percent Control
Text: as §1

[11] = biological target: DYRK1B (Homo sapiens, UniProt Q9Y463); details: read-out: Percent Control
Sequence of DYRK1B (Q9Y463 whole entry): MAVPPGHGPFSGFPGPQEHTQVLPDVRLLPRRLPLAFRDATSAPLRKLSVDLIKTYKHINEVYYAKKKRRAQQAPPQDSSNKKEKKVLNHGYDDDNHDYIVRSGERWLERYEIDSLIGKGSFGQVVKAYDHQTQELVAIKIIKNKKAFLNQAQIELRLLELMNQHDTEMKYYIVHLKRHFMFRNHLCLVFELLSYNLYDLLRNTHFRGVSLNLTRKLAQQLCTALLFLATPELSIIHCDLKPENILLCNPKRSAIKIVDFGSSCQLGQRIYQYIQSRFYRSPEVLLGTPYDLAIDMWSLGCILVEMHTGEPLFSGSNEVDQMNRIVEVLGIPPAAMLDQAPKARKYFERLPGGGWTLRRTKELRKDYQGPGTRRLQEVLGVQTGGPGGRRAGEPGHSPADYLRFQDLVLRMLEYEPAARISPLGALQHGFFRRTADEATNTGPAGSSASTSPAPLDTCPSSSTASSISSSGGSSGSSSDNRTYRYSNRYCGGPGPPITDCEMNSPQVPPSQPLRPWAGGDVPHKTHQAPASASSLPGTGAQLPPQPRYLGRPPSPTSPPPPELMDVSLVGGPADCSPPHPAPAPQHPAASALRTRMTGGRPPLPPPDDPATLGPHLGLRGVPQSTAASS
Text: as §1

[12] = biological target: EPHA2 (Homo sapiens, UniProt P29317); details: read-out: Percent Control
Sequence of EPHA2 (P29317 24-976): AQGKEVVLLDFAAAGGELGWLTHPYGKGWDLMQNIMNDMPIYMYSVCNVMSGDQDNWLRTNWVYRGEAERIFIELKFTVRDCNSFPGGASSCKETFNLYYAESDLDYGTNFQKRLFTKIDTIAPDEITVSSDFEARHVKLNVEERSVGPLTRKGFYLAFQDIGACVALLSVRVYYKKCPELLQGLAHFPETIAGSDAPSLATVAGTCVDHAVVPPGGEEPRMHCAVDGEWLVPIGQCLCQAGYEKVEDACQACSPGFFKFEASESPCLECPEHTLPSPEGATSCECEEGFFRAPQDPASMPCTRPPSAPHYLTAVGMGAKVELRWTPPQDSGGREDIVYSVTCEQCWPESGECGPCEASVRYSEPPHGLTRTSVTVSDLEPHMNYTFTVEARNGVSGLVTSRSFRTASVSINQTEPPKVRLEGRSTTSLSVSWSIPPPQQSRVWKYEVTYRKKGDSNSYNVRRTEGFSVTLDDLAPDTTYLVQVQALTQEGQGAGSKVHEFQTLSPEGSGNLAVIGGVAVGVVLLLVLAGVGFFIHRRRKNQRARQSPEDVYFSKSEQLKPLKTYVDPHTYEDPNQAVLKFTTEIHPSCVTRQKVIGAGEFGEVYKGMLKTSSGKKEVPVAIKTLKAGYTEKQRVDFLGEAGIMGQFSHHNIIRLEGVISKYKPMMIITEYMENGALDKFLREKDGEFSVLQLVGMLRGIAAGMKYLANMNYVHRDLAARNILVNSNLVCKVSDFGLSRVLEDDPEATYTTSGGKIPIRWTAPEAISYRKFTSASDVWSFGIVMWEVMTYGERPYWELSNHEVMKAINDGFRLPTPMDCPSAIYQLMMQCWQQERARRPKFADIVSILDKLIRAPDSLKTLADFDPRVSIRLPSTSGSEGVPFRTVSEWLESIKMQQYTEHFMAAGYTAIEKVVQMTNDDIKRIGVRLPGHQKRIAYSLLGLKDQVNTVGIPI
Text: as §1

[13] = biological target: EPHB1 (Homo sapiens, UniProt P54762); details: 1000 nM, read-out: Percent Control
Text: as §1

[14] = biological target: EPHB4 (Homo sapiens, UniProt P54760); details: 1000 nM, read-out: Percent Control
Text: as §1

[15] = biological target: FLT4 (Homo sapiens, UniProt P35916); details: 1000 nM, read-out: Percent Control
Text: as §1

[16] = biological target: JAK3(JH1domain-catalytic) (Homo sapiens, UniProt P52333); details: 1000 nM, read-out: Percent Control
Text: as §1

[17] = biological target: MAP3K1 (Homo sapiens, UniProt Q13233); details: compound concentration 100 nM; Entrez MAP3K1; read-out: Percent Control
Text: as §1

[18] = biological target: MAP4K5 (Homo sapiens, UniProt Q9Y4K4); details: 1000 nM, read-out: Percent Control
Text: as §1

[19] = biological target: MARK4 (Homo sapiens, UniProt Q96L34); details: compound concentration 100 nM; Entrez MARK4; read-out: Percent Control
Text: as §1

[20] = biological target: MKNK2 (Homo sapiens, UniProt Q9HBH9); details: compound concentration 100 nM; Entrez MKNK2; read-out: Percent Control
Text: as §1

[21] = biological target: NEK2 (Homo sapiens, UniProt P51955); details: compound concentration 100 nM; Entrez NEK2; read-out: Percent Control
Text: as §1

[22] = biological target: PAK4 (Homo sapiens, UniProt O96013); details: 1000 nM, read-out: Percent Control
Text: as §1

[23] = biological target: PDGFRA (Homo sapiens, UniProt P16234); details: 1000 nM, read-out: Percent Control
Text: as §1

[24] = biological target: PFTAIRE2 (Homo sapiens, UniProt Q96Q40); details: 1000 nM, read-out: Percent Control
Text: as §1

[25] = biological target: PHKG2 (Homo sapiens, UniProt P15735); details: 1000 nM, read-out: Percent Control
Text: as §1

[26] = biological target: PIM3 (Homo sapiens, UniProt Q86V86); details: 1000 nM, read-out: Percent Control
Text: as §1

[27] = biological target: PIP5K2C (Homo sapiens, UniProt Q8TBX8); details: 1000 nM, read-out: Percent Control
Text: as §1

[28] = biological target: PKAC-beta (Homo sapiens, UniProt P22694); details: 1000 nM, read-out: Percent Control
Text: as §1

[29] = biological target: PRKCE (Homo sapiens, UniProt Q02156); details: compound concentration 100 nM; Entrez PRKCE; read-out: Percent Control
Text: as §1

[30] = biological target: PRP4 (Homo sapiens, UniProt Q13523); details: compound concentration 100 nM; Entrez PRPF4B; read-out: Percent Control
Text: as §1

[31] = biological target: RPS6KA5(Kin.Dom.1-N-terminal) (Homo sapiens, UniProt O75582); details: compound concentration 100 nM; Entrez RPS6KA5; read-out: Percent Control
Text: as §1

[32] = biological target: RSK2(Kin.Dom.2-C-terminal) (Homo sapiens, UniProt P51812); details: 1000 nM, read-out: Percent Control
Text: as §1

[33] = biological target: RSK3(Kin.Dom.1-N-terminal) (Homo sapiens, UniProt Q15349); details: 1000 nM, read-out: Percent Control
Text: as §1

[34] = biological target: SgK110 (Homo sapiens, UniProt P0C264); details: compound concentration 100 nM; Entrez SgK110; read-out: Percent Control
Text: as §1

[35] = biological target: TAK1 (Homo sapiens, UniProt O43318); details: 1000 nM, read-out: Percent Control
Text: as §1

[36] = biological target: TSSK1B (Homo sapiens, UniProt Q9BXA7); details: 1000 nM, read-out: Percent Control
Text: as §1

Compound: CN1C(=O)[C@@H](N2CCc3c(nn(Cc4ccccc4)c3C(N)=O)C2=O)COc2cc(Cl)ccc21 [Compound 10, (S)-2-benzyl-6-(8-chloro-5-methyl-4-oxo-2,3,4,5-tetrahydrobenzo[b][1,4]oxazepin-3-yl)-7-oxo-4,5,6,7-tetrahydro-2H-pyrazolo[3,4-c]pyridine-3-carboxamide]
- remaining binding at 1 µM [1]: 94%
- remaining binding at 1 µM [2]: 80%
- remaining binding at 1 µM ([3]; 1000 nM): 99%
- remaining binding at 0.1 µM ([3]; compound concentration 100 nM, Entrez NUAK1): 86%
- remaining binding at 1 µM ([4]; 1000 nM): 100%
- remaining binding at 0.1 µM ([4]; compound concentration 100 nM, Entrez AURKB): 100%
- remaining binding at 1 µM [5]: 90%
- remaining binding at 1 µM [6]: 78%
- remaining binding at 1 µM ([7]; 1000 nM): 100%
- remaining binding at 0.1 µM ([7]; compound concentration 100 nM, Entrez CDK13): 100%
- remaining binding at 1 µM ([8]; 1000 nM): 100%
- remaining binding at 0.1 µM ([8]; compound concentration 100 nM, Entrez CHEK2): 100%
- remaining binding at 1 µM ([9]; 1000 nM): 100%
- remaining binding at 0.1 µM ([9]; compound concentration 100 nM, Entrez CSNK1G2): 91%
- remaining binding at 1 µM [10]: 86%
- remaining binding at 1 µM ([11]; 1000 nM): 100%
- remaining binding at 0.1 µM ([11]; compound concentration 100 nM, Entrez DYRK1B): 100%
- remaining binding at 1 µM ([12]; 1000 nM): 100%
- remaining binding at 0.1 µM ([12]; compound concentration 100 nM, Entrez EPHA2): 100%
- remaining binding at 1 µM [13]: 94%
- remaining binding at 1 µM [14]: 94%
- remaining binding at 1 µM [15]: 92%
- remaining binding at 1 µM [16]: 85%
- remaining binding at 0.1 µM [17]: 100%
- remaining binding at 1 µM [18]: 88%
- remaining binding at 0.1 µM [19]: 76%
- remaining binding at 0.1 µM [20]: 94%
- remaining binding at 0.1 µM [21]: 82%
- remaining binding at 1 µM [22]: 73%
- remaining binding at 1 µM [23]: 87%
- remaining binding at 1 µM [24]: 90%
- remaining binding at 1 µM [25]: 78%
- remaining binding at 1 µM [26]: 65%
- remaining binding at 1 µM [27]: 92%
- remaining binding at 1 µM [28]: 87%
- remaining binding at 0.1 µM [29]: 91%
- remaining binding at 0.1 µM [30]: 67%
- remaining binding at 0.1 µM [31]: 92%
- remaining binding at 1 µM [32]: 88%
- remaining binding at 1 µM [33]: 93%
- remaining binding at 0.1 µM [34]: 93%
- remaining binding at 1 µM [35]: 82%
- remaining binding at 1 µM [36]: 82%
